Data reported in ChEMBL document CHEMBL3885881, “DrugMatrix”.

Organism: Rattus norvegicus
Assay: DrugMatrix - Regimen: Daily Repeat
Type: toxicity, organism-based, Sprague-Dawley
Parameters: regimen Daily Repeat, gender Male, age 6-8 weeks
Conditions: in vivo, po, route oral GAVAGE, vehicle .5 % CMC; for ABSOLUTE BASOPHIL / ABSOLUTE EOSINOPHIL / ABSOLUTE LYMPHOCYTE / ABSOLUTE MONOCYTE / ABSOLUTE SEGMENTED NEUTROPHIL / BASOPHIL / EOSINOPHIL / ERYTHROCYTE COUNT / HEMATOCRIT / HEMOGLOBIN / LEUKOCYTE COUNT / LYMPHOCYTE / MEAN CORPUSCULAR HEMOGLOBIN / MEAN CORPUSCULAR HEMOGLOBIN CONCENTRATION / MEAN CORPUSCULAR VOLUME / MONOCYTE / NEUTROPHIL / NUCLEATED RED BLOOD CELLS / PLATELET COUNT: tissue Blood; for ALANINE AMINOTRANSFERASE / ALBUMIN / ALKALINE PHOSPHATASE / ASPARTATE AMINOTRANSFERASE / BLOOD UREA NITROGEN / CARBON DIOXIDE / CHLORIDE / CHOLESTEROL / CREATINE PHOSPHOKINASE / CREATININE / GLUCOSE / LACTATE DEHYDROGENASE / LIPASE / PHOSPHORUS / POTASSIUM / SODIUM / TOTAL BILIRUBIN / TOTAL PROTEIN / URIC ACID: tissue Plasma
[1] = 0 mg/kg, 72 h, dose level Control, time 3 day
[2] = 0 mg/kg, 120 h, dose level Control, time 5 day
[3] = 60 mg/kg, 72 h, dose level Low, time 3 day
[4] = 60 mg/kg, 120 h, dose level Low, time 5 day

SMILES: CC(C)[C@H]1CC[C@H](C(=O)N[C@H](Cc2ccccc2)C(=O)O)CC1 [NATEGLINIDE]
- ABSOLUTE BASOPHIL [1]: 0 CELLS/uL
- ABSOLUTE EOSINOPHIL [1]: 35.67 CELLS/uL
- ABSOLUTE LYMPHOCYTE [1]: 9125.17 CELLS/uL
- ABSOLUTE MONOCYTE [1]: 50.17 CELLS/uL
- ABSOLUTE SEGMENTED NEUTROPHIL [1]: 722.33 CELLS/uL
- BASOPHIL [1]: 0%
- EOSINOPHIL [1]: 0.33%
- ERYTHROCYTE COUNT [1]: 5.35 x10E6/uL
- HEMATOCRIT [1]: 33.58%
- HEMOGLOBIN [1]: 13.35 G/DL
- LEUKOCYTE COUNT [1]: 9.93 x10E3/uL
- LYMPHOCYTE [1]: 91.67%
- MEAN CORPUSCULAR HEMOGLOBIN [1]: 25 pg
- MEAN CORPUSCULAR HEMOGLOBIN CONCENTRATION [1]: 39.8 G/DL
- MEAN CORPUSCULAR VOLUME [1]: 62.77 fL
- MONOCYTE [1]: 0.67%
- NEUTROPHIL [1]: 7.33%
- NUCLEATED RED BLOOD CELLS [1]: 0 /100WBC
- PLATELET COUNT [1]: 866.17 x10E3/uL
- ALANINE AMINOTRANSFERASE [1]: 57.17 u/L
- ALBUMIN [1]: 4.22 G/DL
- ALKALINE PHOSPHATASE [1]: 391 u/L
- ASPARTATE AMINOTRANSFERASE [1]: 95.17 u/L
- BLOOD UREA NITROGEN [1]: 13.67 mg/dL
- CARBON DIOXIDE [1]: 30 mmol/L
- CHLORIDE [1]: 102.5 MEQ/L
- CHOLESTEROL [1]: 72 mg/dL
- CREATINE PHOSPHOKINASE [1]: 485.67 u/L
- CREATININE [1]: 0.27 mg/dL
- GLUCOSE [1]: 152 mg/dL
- LACTATE DEHYDROGENASE [1]: 372.67 u/L
- LIPASE [1]: 9.83 u/L
- PHOSPHORUS [1]: 12.47 mg/dL
- POTASSIUM [1]: 6.81 MEQ/L
- SODIUM [1]: 144.1 MEQ/L
- TOTAL BILIRUBIN [1]: 0.23 mg/dL
- TOTAL PROTEIN [1]: 5.93 G/DL
- URIC ACID [1]: 1.9 mg/dL
- ABSOLUTE BASOPHIL [2]: 0 CELLS/uL
- ABSOLUTE EOSINOPHIL [2]: 67.33 CELLS/uL
- ABSOLUTE LYMPHOCYTE [2]: 11419.17 CELLS/uL
- ABSOLUTE MONOCYTE [2]: 203.17 CELLS/uL
- ABSOLUTE SEGMENTED NEUTROPHIL [2]: 1327 CELLS/uL
- BASOPHIL [2]: 0%
- EOSINOPHIL [2]: 0.5%
- ERYTHROCYTE COUNT [2]: 5.65 x10E6/uL
- HEMATOCRIT [2]: 35.3%
- HEMOGLOBIN [2]: 13.98 G/DL
- LEUKOCYTE COUNT [2]: 13.02 x10E3/uL
- LYMPHOCYTE [2]: 88%
- MEAN CORPUSCULAR HEMOGLOBIN [2]: 24.78 pg
- MEAN CORPUSCULAR HEMOGLOBIN CONCENTRATION [2]: 39.63 G/DL
- MEAN CORPUSCULAR VOLUME [2]: 62.58 fL
- MONOCYTE [2]: 1.33%
- NEUTROPHIL [2]: 10.17%
- NUCLEATED RED BLOOD CELLS [2]: 0 /100WBC
- PLATELET COUNT [2]: 1213.83 x10E3/uL
- ALANINE AMINOTRANSFERASE [2]: 49.67 u/L
- ALBUMIN [2]: 4.28 G/DL
- ALKALINE PHOSPHATASE [2]: 362.33 u/L
- ASPARTATE AMINOTRANSFERASE [2]: 99 u/L
- BLOOD UREA NITROGEN [2]: 20.67 mg/dL
- CARBON DIOXIDE [2]: 26.33 mmol/L
- CHLORIDE [2]: 102 MEQ/L
- CHOLESTEROL [2]: 63.83 mg/dL
- CREATINE PHOSPHOKINASE [2]: 481.83 u/L
- CREATININE [2]: 0.21 mg/dL
- GLUCOSE [2]: 158 mg/dL
- LACTATE DEHYDROGENASE [2]: 656.33 u/L
- LIPASE [2]: 10.67 u/L
- PHOSPHORUS [2]: 12.27 mg/dL
- POTASSIUM [2]: 6.17 MEQ/L
- SODIUM [2]: 143.35 MEQ/L
- TOTAL BILIRUBIN [2]: 0.17 mg/dL
- TOTAL PROTEIN [2]: 6.13 G/DL
- URIC ACID [2]: 1.48 mg/dL
- ABSOLUTE BASOPHIL [3]: 0 CELLS/uL
- ABSOLUTE EOSINOPHIL [3]: 0 CELLS/uL
- ABSOLUTE LYMPHOCYTE [3]: 9045.33 CELLS/uL
- ABSOLUTE MONOCYTE [3]: 160.67 CELLS/uL
- ABSOLUTE SEGMENTED NEUTROPHIL [3]: 994 CELLS/uL
- BASOPHIL [3]: 0%
- EOSINOPHIL [3]: 0%
- ERYTHROCYTE COUNT [3]: 5.13 x10E6/uL
- HEMATOCRIT [3]: 32.57%
- HEMOGLOBIN [3]: 13.4 G/DL
- LEUKOCYTE COUNT [3]: 10.2 x10E3/uL
- LYMPHOCYTE [3]: 88.33%
- MEAN CORPUSCULAR HEMOGLOBIN [3]: 26.2 pg
- MEAN CORPUSCULAR HEMOGLOBIN CONCENTRATION [3]: 41.17 G/DL
- MEAN CORPUSCULAR VOLUME [3]: 63.67 fL
- MONOCYTE [3]: 1.67%
- NEUTROPHIL [3]: 10%
- NUCLEATED RED BLOOD CELLS [3]: 0 /100WBC
- PLATELET COUNT [3]: 720 x10E3/uL
- ALANINE AMINOTRANSFERASE [3]: 53.67 u/L
- ALBUMIN [3]: 4.27 G/DL
- ALKALINE PHOSPHATASE [3]: 449.67 u/L
- ASPARTATE AMINOTRANSFERASE [3]: 94.67 u/L
- BLOOD UREA NITROGEN [3]: 17 mg/dL
- CARBON DIOXIDE [3]: 30.33 mmol/L
- CHLORIDE [3]: 103.67 MEQ/L
- CHOLESTEROL [3]: 73.67 mg/dL
- CREATINE PHOSPHOKINASE [3]: 447.67 u/L
- CREATININE [3]: 0.2 mg/dL
- GLUCOSE [3]: 149 mg/dL
- LACTATE DEHYDROGENASE [3]: 345.33 u/L
- LIPASE [3]: 8.67 u/L
- PHOSPHORUS [3]: 13 mg/dL
- POTASSIUM [3]: 6.04 MEQ/L
- SODIUM [3]: 145.07 MEQ/L
- TOTAL BILIRUBIN [3]: 0.13 mg/dL
- TOTAL PROTEIN [3]: 5.87 G/DL
- URIC ACID [3]: 1.33 mg/dL
- ABSOLUTE BASOPHIL [4]: 0 CELLS/uL
- ABSOLUTE EOSINOPHIL [4]: 124 CELLS/uL
- ABSOLUTE LYMPHOCYTE [4]: 13794 CELLS/uL
- ABSOLUTE MONOCYTE [4]: 49 CELLS/uL
- ABSOLUTE SEGMENTED NEUTROPHIL [4]: 933 CELLS/uL
- BASOPHIL [4]: 0%
- EOSINOPHIL [4]: 0.67%
- ERYTHROCYTE COUNT [4]: 5.42 x10E6/uL
- HEMATOCRIT [4]: 34.03%
- HEMOGLOBIN [4]: 13.53 G/DL
- LEUKOCYTE COUNT [4]: 14.9 x10E3/uL
- LYMPHOCYTE [4]: 92.33%
- MEAN CORPUSCULAR HEMOGLOBIN [4]: 25 pg
- MEAN CORPUSCULAR HEMOGLOBIN CONCENTRATION [4]: 39.77 G/DL
- MEAN CORPUSCULAR VOLUME [4]: 62.87 fL
- MONOCYTE [4]: 0.33%
- NEUTROPHIL [4]: 6.67%
- NUCLEATED RED BLOOD CELLS [4]: 0 /100WBC
- PLATELET COUNT [4]: 1175.33 x10E3/uL
- ALANINE AMINOTRANSFERASE [4]: 57.67 u/L
- ALBUMIN [4]: 4.2 G/DL
- ALKALINE PHOSPHATASE [4]: 396.67 u/L
- ASPARTATE AMINOTRANSFERASE [4]: 87 u/L
- BLOOD UREA NITROGEN [4]: 20 mg/dL
- CARBON DIOXIDE [4]: 25 mmol/L
- CHLORIDE [4]: 104 MEQ/L
- CHOLESTEROL [4]: 56 mg/dL
- CREATINE PHOSPHOKINASE [4]: 315 u/L
- CREATININE [4]: 0.27 mg/dL
- GLUCOSE [4]: 169.67 mg/dL
- LACTATE DEHYDROGENASE [4]: 303.33 u/L
- LIPASE [4]: 10.67 u/L
- PHOSPHORUS [4]: 12.97 mg/dL
- POTASSIUM [4]: 5.61 MEQ/L
- SODIUM [4]: 144.73 MEQ/L
- TOTAL BILIRUBIN [4]: 0.23 mg/dL
- TOTAL PROTEIN [4]: 5.93 G/DL
- URIC ACID [4]: 1.37 mg/dL
